Source: US20260232767A1, “INTERLEUKIN-23 RECEPTOR ANTAGONIST PEPTIDES FOR USE IN THE TREATMENT OF PSORIASIS” (Janssen Pharmaceutica NV, priority 2023, published 2026)

System: subjects with moderate-to-severe plaque psoriasis
Test: Safety, adverse events, Example 2 through Week 56
Format: in vivo, human
Design: Participants experiencing 1 or more AEs: unit not given here
Details: for Subjects with 1 or more Adverse events / Subjects with 1 or more Adverse events: Alanine aminotransferase increased / Subjects with 1 or more Adverse events: Arthralgia / Subjects with 1 or more Adverse events: Aspartate aminotransferase increased / Subjects with 1 or more Adverse events: Bronchitis / Subjects with 1 or more Adverse events: COVID-19 / Subjects with 1 or more Adverse events: Cough / Subjects with 1 or more Adverse events: Diarrhea / Subjects with 1 or more Adverse events: Headache / Subjects with 1 or more Adverse events: Influenza / Subjects with 1 or more Adverse events: Nasopharyngitis / Subjects with 1 or more Adverse events: Upper respiratory tract infection / Subjects with 1 or more Adverse events: Urinary tract infection / Subjects with 1 or more Serious adverse events / Subjects with 1 or more Serious adverse events: COVID-19 / Subjects with 1 or more Serious adverse events: Cerebrovascular accident / Subjects with 1 or more Serious adverse events: Coronary artery disease / Subjects with 1 or more Serious adverse events: Diverticulitis / Subjects with 1 or more Serious adverse events: Foot deformity / Subjects with 1 or more Serious adverse events: Infected cyst / Subjects with 1 or more Serious adverse events: Intervertebral disc protrusion / Subjects with 1 or more Serious adverse events: Ligament injury / Subjects with 1 or more Serious adverse events: Non-cardiac chest pain / Subjects with 1 or more Serious adverse events: Suicide attempt / Subjects with 1 or more Serious adverse events: Tonsillar hypertrophy / Subjects with 1 or more Serious adverse events: Uterine leiomyoma / Subjects with 1 or more Serious adverse events: Ventricular dysfunction / Subjects with 1 or more treatment-emergent adverse events leading to discontinuation of study agent: number of subjects
Text: The LTE safety analysis was based on randomized participants in Example who entered the present long-term extension study and received at least one dose of study intervention (including a partial dose) during the study period.

[1] = Placebo → 100 mg QD, through Week 56
[2] = Week 16 through Week 56, dose group = column
[3] = combined group, long-term extension

CC(=O)NCCCC[C@@H]1NC(=O)[C@H](Cc2c[nH]c3c(C)cccc23)NC(=O)[C@H]([C@@H](C)O)NC(=O)[C@H](CC(N)=O)NC(=O)[C@@H](NC(C)=O)C(C)(C)SSC(C)(C)[C@@H](C(=O)N[C@@H](Cc2ccc(OCCN)cc2)C(=O)N[C@@H](Cc2ccc3ccccc3c2)C(=O)NC2(C(=O)N[C@@H](CCC(=O)O)C(=O)N[C@@H](CC(N)=O)C(=O)N[C@@H](Cc3cccnc3)C(=O)N(C)CC(N)=O)CCOCC2)NC1=O [IL-23 receptor antagonist peptide, Ac-[Pen]*-N-T-[W(7-Me)]-[Lys(Ac)]-[Pen]*-Phe[4-(2-aminoethoxy)]-[2-Nal]-[THP]-E-N-[3-Pal]-Sarc-NH2 (*[Pen]-[Pen]* formdisulfidebond)]
24: Subjects with 1 or more Adverse events (through Week 56, 25 mg QD)
18.1%: Nasopharyngitis [3]
41.9%: Infections and infestations AEs (all groups, long-term extension)
4.0%: Participants with one or more serious adverse events (long-term extension)
32: Subjects with 1 or more Adverse events (through Week 56, 25 mg BID) | Subjects with 1 or more Adverse events (through Week 56, 50 mg QD)
2: Renal and urinary disorders: number of subjects [1] | Skin and subcutaneous tissue disorders: number of subjects [1] | Subjects with 1 or more Adverse events: Bronchitis (through Week 56, 25 mg BID) | Subjects with 1 or more Adverse events: Diarrhea (through Week 56, 25 mg BID) | Subjects with 1 or more treatment-emergent adverse events leading to discontinuation of study agent (through Week 56, 25 mg BID) | Subjects with 1 or more Adverse events: Bronchitis (through Week 56, 25 mg QD) | Subjects with 1 or more Adverse events: Diarrhea (through Week 56, 25 mg QD) | Subjects with 1 or more Adverse events: Headache (through Week 56, 25 mg QD) | Subjects with 1 or more Adverse events: Urinary tract infection (through Week 56, 25 mg QD) | Subjects with 1 or more Adverse events: Cough (through Week 56, 50 mg QD)
7: Subjects with 1 or more Adverse events: Upper respiratory tract infection (through Week 56, 25 mg QD)
6: Subjects with 1 or more Adverse events: COVID-19 (through Week 56, 25 mg QD) | Subjects with 1 or more Adverse events: COVID-19 (through Week 56, 50 mg QD)
(2.9%): Respiratory, thoracic and mediastinal disorders: % of subjects [1] | Retinal vein occlusion: % of subjects [1] | Vascular disorders: % of subjects [1]
9: Subjects with 1 or more Adverse events: COVID-19 (through Week 56, 25 mg BID)
(25.7%): Nasopharyngitis: % of subjects [2]
well-tolerated: Tolerability (all treatment groups, long-term extension)
13: Subjects with 1 or more Adverse events: Nasopharyngitis (through Week 56, 50 mg QD)
5.3%: COVID-19 [3]
58.600: Participants experiencing 1 or more AEs [3]
(10.5%): Investigations (system organ class): % of subjects [2]
(5.7%): Renal and urinary disorders: % of subjects [1] | Skin and subcutaneous tissue disorders: % of subjects [1]
3: Subjects with 1 or more Adverse events: Headache (through Week 56, 25 mg BID) | Subjects with 1 or more Adverse events: Influenza (through Week 56, 25 mg BID) | Subjects with 1 or more Adverse events: Upper respiratory tract infection (through Week 56, 25 mg BID) | Subjects with 1 or more Serious adverse events (through Week 56, 25 mg BID) | Subjects with 1 or more Adverse events: Nasopharyngitis (through Week 56, 25 mg QD) | Subjects with 1 or more treatment-emergent adverse events leading to discontinuation of study agent (through Week 56, 25 mg QD) | Subjects with 1 or more Adverse events: Upper respiratory tract infection (through Week 56, 50 mg QD) | Subjects with 1 or more Serious adverse events (through Week 56, 50 mg QD)
9.7%: Upper respiratory tract infection [3]
1: Respiratory, thoracic and mediastinal disorders: number of subjects [1] | Retinal vein occlusion: number of subjects [1] | Vascular disorders: number of subjects [1] | Subjects with 1 or more Adverse events: Alanine aminotransferase increased (through Week 56, 25 mg BID) | Subjects with 1 or more Adverse events: Aspartate aminotransferase increased (through Week 56, 25 mg BID) | Subjects with 1 or more Adverse events: Urinary tract infection (through Week 56, 25 mg BID) | Subjects with 1 or more Serious adverse events: Ligament injury (through Week 56, 25 mg BID) | Subjects with 1 or more Serious adverse events: Tonsillar hypertrophy (through Week 56, 25 mg BID) | Subjects with 1 or more Serious adverse events: Ventricular dysfunction (through Week 56, 25 mg BID) | Subjects with 1 or more Adverse events: Alanine aminotransferase increased (through Week 56, 25 mg QD) | Subjects with 1 or more Adverse events: Arthralgia (through Week 56, 25 mg QD) | Subjects with 1 or more Adverse events: Aspartate aminotransferase increased (through Week 56, 25 mg QD) | Subjects with 1 or more Adverse events: Cough (through Week 56, 25 mg QD) | Subjects with 1 or more Adverse events: Alanine aminotransferase increased (through Week 56, 50 mg QD) | Subjects with 1 or more Adverse events: Arthralgia (through Week 56, 50 mg QD) | Subjects with 1 or more Adverse events: Aspartate aminotransferase increased (through Week 56, 50 mg QD) | Subjects with 1 or more Adverse events: Headache (through Week 56, 50 mg QD) | Subjects with 1 or more Adverse events: Influenza (through Week 56, 50 mg QD) | Subjects with 1 or more Adverse events: Urinary tract infection (through Week 56, 50 mg QD) | Subjects with 1 or more Serious adverse events: Coronary artery disease (through Week 56, 50 mg QD) | Subjects with 1 or more Serious adverse events: Foot deformity (through Week 56, 50 mg QD) | Subjects with 1 or more Serious adverse events: Infected cyst (through Week 56, 50 mg QD) | Subjects with 1 or more Serious adverse events: Non-cardiac chest pain (through Week 56, 50 mg QD)
0: Pyrexia: number of subjects [1] | Rash pruritic: number of subjects [1] | Renal mass: number of subjects [1] | Rhinorrhoea: number of subjects [1] | Seasonal allergy: number of subjects [1] | Skin laceration: number of subjects [1] | Skin papilloma: number of subjects [1] | Social circumstances: number of subjects [1] | Steatohepatitis: number of subjects [1] | Suicide attempt: number of subjects [1] | Sunburn: number of subjects [1] | Thrombocytopenia: number of subjects [1] | Thrombocytosis: number of subjects [1] | Tonsillar hypertrophy: number of subjects [1] | Tooth fracture: number of subjects [1] | Type 2 diabetes mellitus: number of subjects [1] | Urinary tract disorder: number of subjects [1] | Uterine leiomyoma: number of subjects [1] | Ventricular dysfunction: number of subjects [1] | Vertigo: number of subjects [1] | Vitamin D deficiency: number of subjects [1] | Subjects with 1 or more Adverse events: Arthralgia (through Week 56, 25 mg BID) | Subjects with 1 or more Adverse events: Cough (through Week 56, 25 mg BID) | Subjects with 1 or more Serious adverse events: COVID-19 (through Week 56, 25 mg BID) | Subjects with 1 or more Serious adverse events: Cerebrovascular accident (through Week 56, 25 mg BID) | Subjects with 1 or more Serious adverse events: Coronary artery disease (through Week 56, 25 mg BID) | Subjects with 1 or more Serious adverse events: Diverticulitis (through Week 56, 25 mg BID) | Subjects with 1 or more Serious adverse events: Foot deformity (through Week 56, 25 mg BID) | Subjects with 1 or more Serious adverse events: Infected cyst (through Week 56, 25 mg BID) | Subjects with 1 or more Serious adverse events: Intervertebral disc protrusion (through Week 56, 25 mg BID) | Subjects with 1 or more Serious adverse events: Non-cardiac chest pain (through Week 56, 25 mg BID) | Subjects with 1 or more Serious adverse events: Suicide attempt (through Week 56, 25 mg BID) | Subjects with 1 or more Serious adverse events: Uterine leiomyoma (through Week 56, 25 mg BID) | Subjects with 1 or more Adverse events: Influenza (through Week 56, 25 mg QD) | Subjects with 1 or more Serious adverse events (through Week 56, 25 mg QD) | Subjects with 1 or more Serious adverse events: COVID-19 (through Week 56, 25 mg QD) | Subjects with 1 or more Serious adverse events: Cerebrovascular accident (through Week 56, 25 mg QD) | Subjects with 1 or more Serious adverse events: Coronary artery disease (through Week 56, 25 mg QD) | Subjects with 1 or more Serious adverse events: Diverticulitis (through Week 56, 25 mg QD) | Subjects with 1 or more Serious adverse events: Foot deformity (through Week 56, 25 mg QD) | Subjects with 1 or more Serious adverse events: Infected cyst (through Week 56, 25 mg QD) | Subjects with 1 or more Serious adverse events: Intervertebral disc protrusion (through Week 56, 25 mg QD) | Subjects with 1 or more Serious adverse events: Ligament injury (through Week 56, 25 mg QD) | Subjects with 1 or more Serious adverse events: Non-cardiac chest pain (through Week 56, 25 mg QD) | Subjects with 1 or more Serious adverse events: Suicide attempt (through Week 56, 25 mg QD) | Subjects with 1 or more Serious adverse events: Tonsillar hypertrophy (through Week 56, 25 mg QD) | Subjects with 1 or more Serious adverse events: Uterine leiomyoma (through Week 56, 25 mg QD) | Subjects with 1 or more Serious adverse events: Ventricular dysfunction (through Week 56, 25 mg QD) | Subjects with 1 or more Serious adverse events: COVID-19 (through Week 56, 50 mg QD) | Subjects with 1 or more Serious adverse events: Cerebrovascular accident (through Week 56, 50 mg QD) | Subjects with 1 or more Serious adverse events: Diverticulitis (through Week 56, 50 mg QD) | Subjects with 1 or more Serious adverse events: Intervertebral disc protrusion (through Week 56, 50 mg QD) | Subjects with 1 or more Serious adverse events: Ligament injury (through Week 56, 50 mg QD) | Subjects with 1 or more Serious adverse events: Suicide attempt (through Week 56, 50 mg QD)
8: Subjects with 1 or more Adverse events: Nasopharyngitis (through Week 56, 25 mg BID)
4: Number of participants who discontinued study intervention due to one or more AEs (long-term extension) | Subjects with 1 or more Adverse events: Bronchitis (through Week 56, 50 mg QD) | Subjects with 1 or more Adverse events: Diarrhea (through Week 56, 50 mg QD)
